Results: patent publication US20250282779A1, “SUBSTITUTED 5,6,7,8-TETRAHYDROPYRIDO[2,3-D]PYRIMIDINE-2,4-DIONES FOR TREATING CARDIAC DISEASES” (MYOKARDIA, INC., priority 2018, published 2025)

Columns and labels:
bovine cardiac myosin = bovine cardiac myosin (Bos taurus (Bovine), UniProt Q9BE39); assay: Myosin inhibition assay (bcMF pCa 6 IC50); format: biochemical; conditions: bovine cardiac myofibrils, calcium giving 50% activation; read-out: bcMF pCa_6 IC50 MEAN
Protocol: Myosin inhibition assay (bcMF pCa 6IC50 (μM))
Small molecule agents were assessed for their ability to inhibit the enzymatic activity of bovine cardiac myosin using a biochemical assay that couples the release of ADP (adenosine diphosphate) from cardiac myosin to an enzymatic coupling system consisting of pyruvate kinase and lactate dehydrogenase (PK/LDH) and monitoring the absorbance decrease of NADH (at 340 nm) as a function of time. PK converts ADP to ATP (adenosine triphosphate) by converting PEP (phosphoenolpyruvate) to pyruvate. Pyruvate is then converted to lactate by LDH by converting NADH (nicotinamide adenine dinucleotide) to NAD (oxidized nicotinamide adenine dinucleotide). The source of cardiac myosin was from bovine heart in the form of skinned myofibrils. Prior to testing small molecule agents, the bovine myofibrils were assessed for their calcium responsiveness and the calcium concentration that achieves a 50% activation of the myofibril system was chosen as the final condition for assessing the inhibitory activity of the small molecule agents. All enzymatic activity was measured in a buffered solution containing 12 mM PIPES (piperazine-N,N′-bis(2-ethanesulfonic acid), 2 mM magnesium chloride at pH 6.8 (PM12 buffer). Final assay conditions were 1 mg/mL of bovine cardiac myofibrils, 0.4 mM PK/LDH, 50 uM ATP, 0.1 mg/mL BSA (bovine serum albumin), 10 ppm antifoam, 2 mM BME, 0.5 mM NADH, and 1.5 mM PEP at the desired free calcium concentration required to achieve 50% activation of the myofibrils.
A dilution series of compound was created in DMSO such that the final desired concentration of compound would be achieved in a volume of 30 μL with a fixed DMSO concentration of 3.3% (v/v). Typically 1 μL of the dilution series were added to 384 well plate to achieve a 10 point dose response. Following the addition of 14 μL of a solution containing bovine cardiac myofibrils, PK/LDH and a solution of calcium (that achieved 50% activation), the enzymatic reaction was started with the addition of 15 μL of a solution containing ATP, PEP and NADH. The reaction progress was followed in a PerkinElmer Envision plate reader at ambient temperature using clear bottom plates. The plate reader was configured to read absorbance at 340 nm in kinetics mode for 15 minutes. Data were recorded as the slope of the absorbance response to time. The slopes of the absorbance response as a function of time were normalized to slopes on the plate containing DMSO. This normalized rate was then plotted as a function of small molecule concentration and the data was fitted to a four-parameter fit using EXCEL XLfit. The IC50 is the concentration at which fifty percent of the total response is inhibited.

[1] = Reactive metabolite identification (glutathione adducts); format: in vitro ADME, human
Protocol: Reactive Metabolite Identification
In vitro determination of reactive metabolite formation for small molecules by detection of glutathione adducts formed in vitro in incubations with human liver microsomes fortified with NADPH and glutathione.
Methods: The metabolism of small molecules (30 μM) for glutathione adduct formation was assessed in incubations (200 μL volume, […], 60 min incubation time) with liver microsomes from human (1 mg/mL protein) conducted in potassium phosphate buffer (0.1 M, pH 7.4) for 1 h at 37° C. in a 96-well plate (2 mL well volume) and were performed in the absence of NADPH (used as a negative control) and in the presence of NADPH (1 mM) and glutathione (GSH, 10 mM). Incubations with liver microsomes were performed in a shaking water bath incubator with slow horizontal shaking (30 rpm). To obtain 30 μM incubation concentration of a compound, a 3 mM substrate stock solution in DMSO was used. Final incubation mixtures contained 148 μL of potassium phosphate buffer, 10 μL of liver microsome solution (20 mg protein/mL), 2 μL of the 3 mM substrate solution and where incubations were initiated by the addition of 40 μL of NADPH solution (5 mM dissolved in potassium phosphate buffer). Non-NADPH containing incubations were supplemented with 40 μL of potassium phosphate buffer. Post-incubation, reactions were terminated by adding an equal volume of acetonitrile containing 20 nM carbamazepine internal standard and 3% formic acid. Quenched samples then were centrifuged (4,600 rpm, 4° C., 10-min) after which the supernatants were transferred to a 96-well LC-MS sample analysis plate and diluted with one volume equivalent of HPLC-grade water, and then heat sealed with aluminum foil prior to analysis by liquid chromatography/mass spectrometry (LC-MS/MS).
Analyte identification: The LC-MS/MS detection (with in-line UV detection at 280 nm) of test compounds and potential GSH-adducts was focused on extracting selected ion chromatographic profiles using the protonated molecular ion MH^+ m/z for parent to 4 decimal places, and corresponding protonated molecular ions of predicted GSH-adduct metabolites (m/z MH^+ parent+305.0681 amu) using Xcalibur software (version 2.1.0, Thermo Fisher Scientific, Waltham, MA). Relative GSH-adduct abundance in vitro in liver microsome extracts was assessed using the LC/UV absorbance at 280 nm peak area ratio obtained by using Xcalibur software (version 2.1.0) between the detected GSH-adducts from NADPH- and GSH-fortified incubation extracts and the corresponding LC/UV peak area of the parent compound from minus NADPH containing incubation extracts. The extent of GSH-adduct formation was determined by LC-MS/MS analysis with in-line LC-UV detection at 280 nm by dividing the glutathione-adduct LC/UV peak area by the LC/UV peak area of the corresponding parent HCM-1 NG analog determined from analysis of control (-NAPDH, -GSH) incubations extracts.
Materials: Pooled male human (HLM, 50 donors) liver microsomes were obtained from Bioreclamation IVT (Baltimore, MD). Glutathione (GSH) and NADPH were purchased from Sigma Chemical Co. (St. Louis, MO). All solvents used for liquid chromatography-tandem mass spectrometry (LC-MS/MS) analyses were of chromatographic grade.
LC-MS Conditions: Extracts from incubations with liver microsomes and hepatocytes were characterized by LC-MS and LC-MS/MS on a Thermo Electron LTQ Orbitrap XL mass spectrometer coupled with a Dionex UltiMate 3000 UHPLC containing in-line diode array detection and an OAS-3300TXRS Autosampler (40 μL injection volume). Electrospray ionization (ESI) was employed in the positive ion mode with the needle potential held at 5.01 kV, a sheath flow rate of 35.02, aux flow rate of 9.99, a current of 2.6 uA, a capillary temperature of 325° C., and a capillary voltage of 15.99. Vacuum conditions used were an ion gauge pressure used was 2.33×10^−5 Torr and a convection gauge pressure of 0.90 Torr. […]

Chain of bovine cardiac myosin (Q9BE39 whole entry): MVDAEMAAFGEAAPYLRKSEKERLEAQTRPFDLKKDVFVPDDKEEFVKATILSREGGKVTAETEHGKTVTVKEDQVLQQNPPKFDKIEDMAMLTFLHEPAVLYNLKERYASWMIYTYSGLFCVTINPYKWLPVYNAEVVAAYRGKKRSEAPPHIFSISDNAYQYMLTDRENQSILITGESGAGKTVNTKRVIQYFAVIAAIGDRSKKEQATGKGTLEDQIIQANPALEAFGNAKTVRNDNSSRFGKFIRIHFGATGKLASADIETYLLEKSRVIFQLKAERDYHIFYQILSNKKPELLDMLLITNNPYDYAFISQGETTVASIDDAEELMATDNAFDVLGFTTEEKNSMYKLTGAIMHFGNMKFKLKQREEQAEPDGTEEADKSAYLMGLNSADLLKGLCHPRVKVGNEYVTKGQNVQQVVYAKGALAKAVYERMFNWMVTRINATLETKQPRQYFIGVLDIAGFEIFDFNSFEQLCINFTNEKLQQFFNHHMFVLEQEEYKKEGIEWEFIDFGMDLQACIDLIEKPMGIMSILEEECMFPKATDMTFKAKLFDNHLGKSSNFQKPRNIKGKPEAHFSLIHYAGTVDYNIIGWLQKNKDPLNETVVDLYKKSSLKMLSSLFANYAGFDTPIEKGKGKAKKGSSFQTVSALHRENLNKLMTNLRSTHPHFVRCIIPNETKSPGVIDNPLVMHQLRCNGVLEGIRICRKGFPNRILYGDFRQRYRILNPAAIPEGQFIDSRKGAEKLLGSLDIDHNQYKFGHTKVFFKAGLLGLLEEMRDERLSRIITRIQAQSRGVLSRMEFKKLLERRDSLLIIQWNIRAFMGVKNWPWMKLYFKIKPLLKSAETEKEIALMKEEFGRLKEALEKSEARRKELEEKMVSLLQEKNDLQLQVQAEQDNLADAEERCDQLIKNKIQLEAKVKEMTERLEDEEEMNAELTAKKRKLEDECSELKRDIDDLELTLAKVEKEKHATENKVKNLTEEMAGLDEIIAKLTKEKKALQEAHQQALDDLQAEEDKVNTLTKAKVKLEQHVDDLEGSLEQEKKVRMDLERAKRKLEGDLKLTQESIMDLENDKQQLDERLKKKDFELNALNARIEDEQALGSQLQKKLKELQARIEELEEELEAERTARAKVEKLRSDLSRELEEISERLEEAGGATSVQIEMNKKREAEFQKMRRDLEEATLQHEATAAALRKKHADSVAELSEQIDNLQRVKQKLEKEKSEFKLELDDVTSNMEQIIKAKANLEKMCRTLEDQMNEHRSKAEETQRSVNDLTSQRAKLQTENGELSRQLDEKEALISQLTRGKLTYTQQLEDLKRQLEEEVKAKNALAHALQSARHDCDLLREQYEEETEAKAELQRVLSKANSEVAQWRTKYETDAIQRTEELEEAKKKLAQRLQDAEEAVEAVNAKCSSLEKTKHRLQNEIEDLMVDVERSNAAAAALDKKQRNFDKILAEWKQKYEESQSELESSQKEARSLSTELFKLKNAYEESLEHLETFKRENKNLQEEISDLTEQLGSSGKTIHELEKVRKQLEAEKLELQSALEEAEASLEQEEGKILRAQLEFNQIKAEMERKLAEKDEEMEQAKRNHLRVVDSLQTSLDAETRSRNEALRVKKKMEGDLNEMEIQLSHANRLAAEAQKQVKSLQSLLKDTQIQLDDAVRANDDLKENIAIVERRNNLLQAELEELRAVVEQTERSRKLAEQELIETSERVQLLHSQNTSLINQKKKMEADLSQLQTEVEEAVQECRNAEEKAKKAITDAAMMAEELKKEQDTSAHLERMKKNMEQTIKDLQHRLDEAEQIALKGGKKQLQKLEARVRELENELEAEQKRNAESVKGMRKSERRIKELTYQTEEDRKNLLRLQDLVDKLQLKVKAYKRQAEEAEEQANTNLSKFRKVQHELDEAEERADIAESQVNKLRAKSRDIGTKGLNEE
Chain of bovine cardiac myosin (P85100 whole entry partner): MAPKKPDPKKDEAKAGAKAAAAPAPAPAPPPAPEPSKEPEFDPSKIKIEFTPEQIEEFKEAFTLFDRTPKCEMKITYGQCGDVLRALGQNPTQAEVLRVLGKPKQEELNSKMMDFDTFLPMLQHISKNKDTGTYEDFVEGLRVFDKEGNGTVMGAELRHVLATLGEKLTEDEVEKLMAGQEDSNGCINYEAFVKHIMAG
Chain of bovine cardiac myosin (Q3SZE5 whole entry partner): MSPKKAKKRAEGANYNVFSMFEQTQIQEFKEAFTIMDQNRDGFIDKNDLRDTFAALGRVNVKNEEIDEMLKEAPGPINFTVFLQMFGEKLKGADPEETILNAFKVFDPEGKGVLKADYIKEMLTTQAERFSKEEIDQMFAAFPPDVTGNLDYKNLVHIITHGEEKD

O=c1[nH]c2c(c(=O)n1C1CCOCC1)C[C@H](F)[C@H](c1ccccc1F)N2 [Compound 9]
IC50 (bovine cardiac myosin): 5.59 µM | Glutathione Adduct Detection in Human Liver Microsome Incubations (single measurement) [1]: Not Detected | Glutathione Adduct Detection in Human Liver Microsome Incubations, Average (triple measurements) [1]: Not Detected

O=c1[nH]c2c(c(=O)n1C1CCOCC1)C[C@@H](F)[C@H](c1ccccc1F)N2 [Compound 8]
IC50 (bovine cardiac myosin): 1.46 µM | Glutathione Adduct Detection in Human Liver Microsome Incubations (single measurement) [1]: Not Detected | Glutathione Adduct Detection in Human Liver Microsome Incubations, Average (triple measurements) [1]: Not Detected

Cc1ccc(F)c([C@H]2Nc3[nH]c(=O)n(C4CCOCC4)c(=O)c3C[C@H]2F)c1 [Compound 5, (6R,7R)-6-fluoro-7-(2-fluoro-5-methylphenyl)-3-(tetrahydro-2H-pyran-4-yl)-5,6,7,8-tetrahydropyrido[2,3-d]pyrimidine-2,4(1H, 3H)-dione]
IC50 (bovine cardiac myosin): 20.8 µM | Glutathione Adduct Detection in Human Liver Microsome Incubations (single measurement) [1]: Not Detected | Glutathione Adduct Detection in Human Liver Microsome Incubations, Average (triple measurements) [1]: Not Detected

Cc1ccc(F)c([C@@H]2Nc3[nH]c(=O)n(C4CCOCC4)c(=O)c3C[C@H]2F)c1 [Compound 4, (6R,7S)-6-fluoro-7-(2-fluoro-5-methylphenyl)-3-(tetrahydro-2H-pyran-4-yl)-5,6,7,8-tetrahydropyrido[2,3-d]pyrimidine-2,4(1H, 3H)-dione]
IC50 (bovine cardiac myosin): 0.37 µM | Glutathione Adduct Detection in Human Liver Microsome Incubations (single measurement) [1]: Not Detected | Glutathione Adduct Detection in Human Liver Microsome Incubations, Average (triple measurements) [1]: Not Detected

C#Cc1ccc(F)c([C@@H]2Nc3[nH]c(=O)n(C4CCOCC4)c(=O)c3C[C@@H]2F)c1 [Compound 7]
IC50 (bovine cardiac myosin): 0.54 µM

O=c1[nH]c2c(c(=O)n1C1CCOCC1)C[C@@H](F)[C@@H](c1cccc(F)c1)N2 [Compound 12]
IC50 (bovine cardiac myosin): 23.2 µM | Glutathione Adduct Detection in Human Liver Microsome Incubations (single measurement) [1]: Not Detected | Glutathione Adduct Detection in Human Liver Microsome Incubations, Average (triple measurements) [1]: Not Detected

O=c1[nH]c2c(c(=O)n1C1CCOCC1)C[C@H](F)[C@H](c1cc(CO)ccc1F)N2
IC50 (bovine cardiac myosin): 0.78 µM

Cc1ccc(F)c([C@H]2Nc3[nH]c(=O)n(C4CCOCC4)c(=O)c3C[C@@H]2F)c1 [Compound 6, (6S,7R)-6-fluoro-7-(2-fluoro-5-methylphenyl)-3-(tetrahydro-2H-pyran-4-yl)-5,6,7,8-tetrahydropyrido[2,3-d]pyrimidine-2,4(1H,3H)-dione]
IC50 (bovine cardiac myosin): 26.4 µM | Glutathione Adduct Detection in Human Liver Microsome Incubations (single measurement) [1]: Not Detected | Glutathione Adduct Detection in Human Liver Microsome Incubations, Average (triple measurements) [1]: Not Detected

COc1ccc(F)c([C@@H]2Nc3[nH]c(=O)n(C4CCOCC4)c(=O)c3C[C@H]2F)c1 [Compound 11]
IC50 (bovine cardiac myosin): 0.49 µM | Glutathione Adduct Detection in Human Liver Microsome Incubations (single measurement) [1]: Not Detected | Glutathione Adduct Detection in Human Liver Microsome Incubations, Average (triple measurements) [1]: Not Detected

COc1ccc(F)c([C@@H]2Nc3[nH]c(=O)n(C4CCOCC4)c(=O)c3C[C@@H]2F)c1 [Compound 10]
IC50 (bovine cardiac myosin): 1.02 µM | Glutathione Adduct Detection in Human Liver Microsome Incubations (single measurement) [1]: Not Detected | Glutathione Adduct Detection in Human Liver Microsome Incubations, Average (triple measurements) [1]: Not Detected
